In ChEMBL document CHEMBL1146053, “Discovery and optimization of a novel series of liver X receptor-alpha agonists” (Bioorg Med Chem Lett, 2006):

Test system: not listed separately
Experiment: AUC in Sprague-Dawley rat at 5 mg/kg, po
Assay type: ADME, organism-based
Set-up: dose 5 mg/kg, route oral
Conditions: plasma

Row | AUC | Compound
1 | 5920 ng·h/mL | O=S(=O)(c1ccccc1)N(CC(F)(F)F)c1ccc(C(O)(C(F)(F)F)C(F)(F)F)cc1 [T091317]
2 | 3200 ng·h/mL | CC(C)CN(c1ccc(C(O)(C(F)(F)F)C(F)(F)F)cc1)S(=O)(=O)c1cccs1

Test system: not listed separately
Experiment: AUC in dog at 5 mg/kg, po
Assay type: ADME, organism-based, Canis lupus familiaris
Set-up: dose 5 mg/kg, route oral
Conditions: plasma

Row | AUC | Compound
3 | 7300 ng·h/mL | O=S(=O)(c1ccccc1)N(CC(F)(F)F)c1ccc(C(O)(C(F)(F)F)C(F)(F)F)cc1 [T091317]

Test system: not listed separately
Experiment: AUC in mice at 5 mg/kg, po
Assay type: ADME, organism-based
Set-up: dose 5 mg/kg, route oral
Conditions: mouse, plasma

Row | AUC | Compound
4 | 3420 ng·h/mL | O=S(=O)(c1ccccc1)N(CC(F)(F)F)c1ccc(C(O)(C(F)(F)F)C(F)(F)F)cc1 [T091317]

Test system: not listed separately
Experiment: Half life in mice at 5 mg/kg, po
Assay type: ADME, organism-based
Set-up: dose 5 mg/kg, route oral
Conditions: mouse, in vivo

Row | half-life | Compound
5 | 3 h | O=S(=O)(c1ccccc1)N(CC(F)(F)F)c1ccc(C(O)(C(F)(F)F)C(F)(F)F)cc1 [T091317]

Test system: not listed separately
Experiment: Half life in dog at 5 mg/kg, po
Assay type: ADME, organism-based, Canis lupus familiaris
Set-up: dose 5 mg/kg, route oral
Conditions: in vivo

Row | half-life | Compound
6 | 5.8 h | O=S(=O)(c1ccccc1)N(CC(F)(F)F)c1ccc(C(O)(C(F)(F)F)C(F)(F)F)cc1 [T091317]

Molecular target: T1, Oxysterols receptor LXR-alpha (Homo sapiens, UniProt Q13133)
T1 sequence (Q13133 whole entry): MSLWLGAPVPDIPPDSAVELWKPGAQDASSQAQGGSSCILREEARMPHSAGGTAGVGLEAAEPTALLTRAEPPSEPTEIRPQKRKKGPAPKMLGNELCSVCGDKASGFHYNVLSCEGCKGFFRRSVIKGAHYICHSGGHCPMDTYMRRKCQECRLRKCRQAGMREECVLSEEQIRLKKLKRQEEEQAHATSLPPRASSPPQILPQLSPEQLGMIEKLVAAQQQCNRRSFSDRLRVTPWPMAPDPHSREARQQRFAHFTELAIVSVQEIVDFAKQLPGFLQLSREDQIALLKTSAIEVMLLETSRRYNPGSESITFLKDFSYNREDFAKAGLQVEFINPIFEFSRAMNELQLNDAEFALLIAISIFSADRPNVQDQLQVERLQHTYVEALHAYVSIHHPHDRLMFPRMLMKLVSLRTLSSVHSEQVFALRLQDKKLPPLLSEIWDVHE
Experiment: Activity against LXR alpha transiently transfected in HEK293 cells
Assay type: cell-based
Conditions: not given

Row | Compound | EC50
7 | O=S(=O)(c1ccccc1)N(c1ccc(C(O)(C(F)(F)F)C(F)(F)F)cc1)C1CCCC1 | 8 nM
8 | O=S(=O)(c1ccccc1)N1CCCCc2cc(C(O)(C(F)(F)F)C(F)(F)F)ccc21 | 10 nM
9 | CN(c1ccc(C(O)(C(F)(F)F)C(F)(F)F)c(Cl)c1)S(=O)(=O)c1ccccc1 | > 5000 nM
10 | CN(Cc1ccc(C(O)(C(F)(F)F)C(F)(F)F)cc1)S(=O)(=O)c1ccccc1 | 3000 nM
11 | CN(c1ccc(C(O)C(F)(F)F)cc1)S(=O)(=O)c1ccccc1 (stereo unspecified) | > 5000 nM
12 | O=S(=O)(c1ccccc1)N1CCc2cc(C(O)(C(F)(F)F)C(F)(F)F)ccc21 | 50 nM
13 | O=S(=O)(c1ccccc1)N1CCOc2cc(C(O)(C(F)(F)F)C(F)(F)F)ccc21 | 100 nM
14 | CN(c1ccc(C(O)(C(F)(F)F)C(F)(F)F)cc1)S(=O)(=O)c1cccc(C#N)c1 | 20 nM
15 | CN(c1ccc(C(O)(C(F)(F)F)C(F)(F)F)cc1)S(=O)(=O)c1ccc(C#N)cc1 | 2000 nM
16 | CN(c1cccc(C(O)(C(F)(F)F)C(F)(F)F)c1)S(=O)(=O)c1ccccc1 | 1000 nM
17 | CC(C)CN(c1ccc(C(O)(C(F)(F)F)C(F)(F)F)cc1)S(=O)(=O)c1cccs1 | 40 nM
18 | CN(c1ccccc1)S(=O)(=O)c1ccc(C(O)(C(F)(F)F)C(F)(F)F)cc1 | 100 nM
19 | CN(c1ccc(C(O)(C(F)(F)F)C(F)(F)F)cc1Cl)S(=O)(=O)c1ccccc1 | 200 nM
20 | C[C@H](CC[C@@H]1OC1(C)C)[C@H]1CC[C@H]2[C@@H]3CC=C4C[C@@H](O)CC[C@]4(C)[C@H]3CC[C@]12C [24(S),25-EPOXYCHOLESTEROL] | 500 nM
21 | CN(c1ccc(C(O)(C(F)(F)F)C(F)(F)F)cc1)S(=O)(=O)c1cccc(S(N)(=O)=O)c1 | 80 nM

Further lines, results first:

Row | EC50 | Compound
22 | 100 nM | CC(C)COC(=O)N(C)c1ccc(C(O)(C(F)(F)F)C(F)(F)F)cc1
23 | 1000 nM | COC(c1ccc(N(C)S(=O)(=O)c2ccccc2)cc1)(C(F)(F)F)C(F)(F)F
24 | 30 nM | O=S(=O)(c1ccccc1)N1CCCc2cc(C(O)(C(F)(F)F)C(F)(F)F)ccc21
25 | 5000 nM | CN(c1ccc(C(C)(O)C(F)(F)F)cc1)S(=O)(=O)c1ccccc1 (stereo unspecified)
26 | 100 nM | CN(C(=O)c1ccccc1)c1ccc(C(O)(C(F)(F)F)C(F)(F)F)cc1
27 | 200 nM | CN(C(=O)c1ccc(C(O)(C(F)(F)F)C(F)(F)F)cc1)c1ccccc1
28 | 30 nM | CN(c1ccc(C(O)(C(F)(F)F)C(F)(F)F)cc1)S(=O)(=O)c1cccc(-c2ccccc2)c1
29 | 4000 nM | O=S(=O)(Nc1ccc(C(O)(C(F)(F)F)C(F)(F)F)cc1)c1ccccc1
30 | 600 nM | CN(c1ccc(C(O)(C(F)(F)F)C(F)(F)F)cc1)S(=O)(=O)c1cccs1
31 | 700 nM | CN(c1ccc(C(O)(C(F)(F)F)C(F)(F)F)cc1)S(=O)(=O)c1ccccc1C#N
